Assay results published in ChEMBL document CHEMBL1201862, “PubChem BioAssay data set” (2004).
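Protocol summary: plate cells (96-well), add compound at 5 concentrations, incubate 48 h, interpolate endpoints linearly. Abbreviation: GI50, concentration required for 50% inhibition of growth.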 Calls of active or inactive are those of the source. Rule as the data show it: active = GI50 up to about 1.1 µM and inactive = higher.

Legend:
Assay in all cases: inhibition of tumour cell growth, NCI panel, 48 h
[1] = system: Malme-3M
[2] = system: SNB-19
[3] = system: SF-539
[4] = system: HCT-116
[5] = system: K562
[6] = system: A498
[7] = system: EKVX
[8] = system: UACC-257
[9] = system: MDA-MB-435
[10] = system: SN12C
[11] = system: HL-60
[12] = system: UO-31
[13] = system: NCI-H522
[14] = system: NCI-H23
[15] = system: NCI-H460
[16] = system: DU-145
[17] = system: RXF 393
[18] = system: ACHN
[19] = system: OVCAR-5
[20] = system: SK-MEL-28

Measured: GI50

OC(c1ccc(-c2ccccc2)cc1)C(F)(F)c1nc2ccccc2o1 (stereo not given)
inactive: [1] 91.8 µM | [2] 49 µM | [3] 31.2 µM | [4] 45.2 µM | [5] 18.2 µM | [6] 9.12 µM | [7] > 73.3 µM | [8] 40.3 µM | [9] > 86.9 µM | [10] 50.5 µM | [11] 15.5 µM | [12] 55 µM | [13] 25 µM | [14] 39.9 µM | [15] 37.5 µM | [16] 26.5 µM | [17] 16.4 µM | [18] 56.6 µM | [19] > 100 µM | [20] > 100 µM

O=[N+]([O-])c1ccc(S(=O)(=O)N=Ic2ccccc2)cc1
inactive: [1] > 100 µM | [2] > 100 µM | [3] > 100 µM | [4] > 100 µM | [5] > 100 µM | [6] > 100 µM | [7] 97.7 µM | [8] > 100 µM | [9] > 100 µM | [10] > 100 µM | [11] > 100 µM | [12] > 100 µM | [13] > 100 µM | [14] > 100 µM | [15] > 100 µM | [16] > 100 µM | [17] > 100 µM | [18] > 100 µM | [19] > 100 µM | [20] > 100 µM

Clc1ccc(-c2nnc3sc4nc5ccccc5c-4nn23)c(Cl)c1
inactive: [1] 49.4 µM | [2] 49.4 µM | [3] 50.9 µM | [4] 40.7 µM | [5] 31.8 µM | [6] 36.4 µM | [7] 28.8 µM | [8] 38.5 µM | [9] 32.6 µM | [10] 50.6 µM | [11] 41.7 µM | [12] 62.4 µM | [13] 26.2 µM | [14] 29 µM | [15] 41.8 µM | [16] 72.1 µM | [17] 78.9 µM | [18] 82.8 µM | [19] 50.6 µM | [20] 43.9 µM

O=C1C(=O)N(C2CCCCC2)C(=S)N1C1CCCCC1
inactive: [1] > 100 µM | [2] > 100 µM | [3] > 100 µM | [4] > 100 µM | [5] > 100 µM | [6] > 100 µM | [7] > 100 µM | [8] > 100 µM | [9] > 100 µM | [10] > 100 µM | [11] > 100 µM | [12] > 100 µM | [13] 7.76 µM | [14] > 100 µM | [15] > 100 µM | [16] > 100 µM | [17] > 100 µM | [18] > 100 µM | [19] > 100 µM | [20] > 100 µM

CC(=O)Nc1[nH]c(C#N)nc1C#N
inactive: [1] > 100 µM | [2] > 100 µM | [3] > 100 µM | [4] > 100 µM | [5] > 100 µM | [6] > 100 µM | [7] > 100 µM | [8] > 100 µM | [9] > 100 µM | [10] > 100 µM | [11] > 100 µM | [12] > 100 µM | [13] > 100 µM | [14] > 100 µM | [15] > 100 µM | [16] > 100 µM | [17] > 100 µM | [18] > 100 µM | [19] > 100 µM | [20] > 100 µM
